The source of these data is article PMC9575645 (Signal Transduction and Targeted Therapy, 2022).

In series [1] the test system is HSL phosphorylation. Nature of the series: HSL phosphorylation by western blot in IAV-infected A549 cells. Conditions: 5 μM or 50 μM. Format: cell-based, human. A general note: Immunoblotting shows a protein as a band on a membrane.
Series [2] relates to HSL phosphorylation. Description: HSL phosphorylation by western blot in SARS-CoV-2-infected Vero E6 cells. Conditions: 5 μM or 50 μM. It is filed as cell-based, African green monkey.
Series [3] deals with Influenza A virus (H1N1) (PR8). The note with it: IAV; FFA-deprived condition in lipase inhibitor-treated cells; 100 µM.
For another series, the system named is SARS-CoV-2 (KCDC03). Nature of the series: In vitro antiviral activity against SARS-CoV-2 in Vero E6 cells (CCIF viral yield, RT-qPCR). It is filed as cell-based. Conditions: SARS-CoV-2; FFA-deprived condition in lipase inhibitor-treated cells; 100 µM. (In general: Quantitative PCR measures a nucleic acid by following its amplification.)
Series [4] is described as follows: In vivo toxicity in hamsters (body weight, gross and histopathological organ changes). The note with it: 80 mg kg^-1 d^-1 atglistatin and 2.5 mg kg^-1 d^-1 remdesivir, singly or in combination.
Protocol: Three groups of 3 hamsters were treated intraperitoneally with 20, 40, and 80 mg kg^-1 d^-1 of atglistatin prepared in a 100 μL vehicle [50% PEG400 in water (vol/vol)] Bid with a 12 h interval for four and a half consecutive days, respectively (Table S10). One group of 3 control anesthetized hamsters was administered intraperitoneally with 100 μL vehicle Bid with a 12 h interval for four and a half consecutive days (Table S10).
Histopathological changes in lungs, liver, kidney, heart, and spleen from the experimental mice or hamsters in each experimental group were determined as described elsewhere.^35 Briefly, each sample from the mice or hamsters in each experimental group was fixed in sufficient 10% neutral formalin at 20°C for 3-4 days, washed in tap water, then trimmed, and thereafter processed in the automatic embedding machine for the dehydration and paraffin embedment. Tissue sections, prepared on slides at a thickness of 3 μm by a microtome, were used for hematoxylin and eosin (H&E) staining or IHC as described below. H&E stained sections were observed under light microscopy. The morphological changes to lung, liver, kidney, heart, and spleen tissues were reviewed in a blinded manner as previous described.^35

Take `O=S(=O)(NCCNC/C=C/c1ccc(Br)cc1)c1cccc2cnccc12` [H89]: the “viral-mediated HSL phosphorylation” value in the series with HSL phosphorylation [1] and in the series on HSL phosphorylation [2] was “prevented viral-mediated HSL phosphorylation” in each case. Turning to `CCCCC/C=C\C/C=C\CCCCCCCC(=O)O` [LA, linoleic acid], the “virus replication on FFA supplementation” value (in series [3]; in the series on SARS-CoV-2 (KCDC03)) was “rescue of replication” throughout.

Take `CCCCCCCC/C=C\CCCCCCCC(=O)O` [OA, oleic acid]: the “virus replication on FFA supplementation” value (in series [3]; in the series on SARS-CoV-2 (KCDC03)) was “rescue of replication” in each case. For `CCCCCCCCCCCCCCCC(=O)O` [PA, palmitic acid], the “virus replication on FFA supplementation” value (in series [3]; in the series on SARS-CoV-2 (KCDC03)) was “rescue of replication” throughout.

Turning to `CCC(CC)COC(=O)[C@H](C)N[P@](=O)(OC[C@H]1O[C@@](C#N)(c2ccc3c(N)ncnn23)[C@H](O)[C@@H]1O)Oc1ccccc1` [remdesivir], the “toxicity, including body weight loss” value in series [4] is reported as “no toxicity”.
